Laboratory results from US11439641B2, “Pyrimidine JAK inhibitors for the treatment of skin diseases” (THERAVANCE BIOPHARMA R&D IP, LLC, priority 2019, dated 2022).
In brackets after ≈: the same amount, converted by molar mass.

What was measured:
Tyk2 = Tyk2 (Homo sapiens (Human), UniProt P29597); test: Biochemical JAK and Tyk2 Kinase Assays (LanthaScreen), Tyk2; conditions: 10 μM ATP (Km), pIC50 converted to pKi by Cheng-Prusoff; for Ki: read-out: Tyk 2 (pKi) (converted)
Procedure: (§1) Assay 1: Biochemical JAK and Tyk2 Kinase Assays
(§2) A panel of four LanthaScreen JAK biochemical assays (JAK1, 2, 3 and Tyk2) were carried in a common kinase reaction buffer (50 mM HEPES, pH 7.5, 0.01% Brij-35, 10 mM MgCl2, and 1 mM EGTA). Recombinant GST-tagged JAK enzymes and a GFP-tagged STAT1 peptide substrate were obtained from Life Technologies.
(§3) Serially or discretely diluted compounds were pre-incubated with each of the four JAK enzymes and the substrate in white 384-well microplates (Corning) at ambient temperature for 1 h. ATP was subsequently added to initiate the kinase reactions in 10 μL total volume, with 1% DMSO. The final enzyme concentrations for JAK1, 2, 3 and Tyk2 are 4.2 nM, 0.1 nM, 1 nM, and 0.25 nM respectively; the corresponding Km ATP concentrations used are 25 μM, 3 μM, 1.6 μM, and 10 μM; while the substrate concentration is 200 nM for all four assays. Kinase reactions were allowed to proceed for 1 hour at ambient temperature before a 10 μL preparation of EDTA (10 mM final concentration) and Tb-anti-pSTAT1 (pTyr701) antibody (Life Technologies, 2 nM final concentration) in TR-FRET dilution buffer (Life Technologies) was added. The plates were allowed to incubate at ambient temperature for 1 h before being read on the EnVision reader (Perkin Elmer). Emission ratio signals (520 nm/495 nm) were recorded and utilized to calculate the percent inhibition values based on DMSO and background controls.
(§4) For dose-response analysis, percent inhibition data were plotted vs. compound concentrations, and IC50 values were determined from a 4-parameter robust fit model with the Prism software (GraphPad Software). Results were expressed as pIC50 (negative logarithm of IC50) and subsequently converted to pKi (negative logarithm of dissociation constant, Ki) using the Cheng-Prusoff equation.

JAK1 = JAK1 (Homo sapiens (Human), UniProt P23458); test: Biochemical JAK and Tyk2 Kinase Assays (LanthaScreen), JAK1; conditions: 25 μM ATP (Km), pIC50 converted to pKi by Cheng-Prusoff
Caco-2 cell monolayer = test: Caco-2 Permeation Assay; type: in vitro ADME; conditions: Papp, 5 μM compound; for Cacoverap Kp 10^−6 cm/sec: A→B in the presence of 25 μM verapamil (P-gp inhibitor); for Caco Kp 10^−6 cm/sec: apical to basal (A→B)
Procedure: Assay 3: Caco-2 Permeation Assay
The Caco 2 permeability assay was used as a surrogate for assessment of skin permeability. This assay measures the in vitro permeability across a monolayer of Caco-2 cells, which morphologically and functionally resemble the enterocytes of the small intestine.
CacoReady 24-well transwell plates were obtained from ADMEcell (Alameda, Calif.). The compounds were evaluated at a concentration of 5 μM from 10 mM DMSO stock solutions in duplicate (n=2). Transport in the apical to basal (A→B) direction was determined in Caco 2 cell monolayers. From these values the apparent permeability (Papp) was calculated. To inform on the potential of the compound to be a P-gp substrate, the transport of the compound across the Caco-2 cell monolayer was also determined in the presence of 25 μM of the known P-gp inhibitor verapamil (Yusa and Tsuruo et al., Cancer Research, vol. 49, no. 18, 1989, pp. 5002-06).
Caco-2 culture media consisted of standard filtered DMEM, FCS 10%, L-Glutamine 1%, and PenStrep 1%. The experiment was conducted at 37° C. and in a CO2 (5%) incubator. The basal assay plate was prepared by adding 750 pt of transport buffer to A→B wells. A CacoReady™ plate was prepared by removing the Caco-2 media from the apical wells and replacing with fresh transport media (200 pt repeated for a total of 3 washes). Blank media (200 μL) was then replaced with diluted compound. To begin the incubation, the basal plate was removed from the incubator and the apical section was added on top of it. Samples were collected from the apical and basal compartments for time zero (t0). Samples were collected again after 120 minutes (t120) from the apical and basal compartments. All samples were diluted and prepared for bioanalysis by LC-MS/MS. The permeability coefficients (Papp, mean A to B) and (Papp, mean A to B+Verapamil) in cm/sec were calculated as dQ (flux)/(dt×Area×concentration).
In this assay, a compound with a Papp value of more than about 12×10−6 cm/sec is considered to have high permeability.

physchem = conditions: thermodynamic from solid
[1] = system: IL-2 stimulated pSTAT5 in Tall-1 T cells; test: Inhibition of IL-2 Stimulated pSTAT5 in Tall-1 T Cells; type: cell-based; conditions: Tall-1 human T cell line, IL-2 300 ng/mL, AlphaLisa; for IC50: read-out: Tall-1 IL2 pSTAT5 (pIC50) (converted)
Procedure, shortened: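 Cells preincubated with compound 1 hour at 37° C, then stimulated with IL-2 (final 300 ng/mL) for 30 minutes. After lysis, pSTAT5 (Tyr694/699) read by AlphaLISA luminescence. IC50 from inhibition curves, reported as pIC50 (mean±SD).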

JAK3 = JAK3 (Homo sapiens (Human), UniProt P52333); test: Biochemical JAK and Tyk2 Kinase Assays (LanthaScreen), JAK3; conditions: 1.6 μM ATP (Km), pIC50 converted to pKi by Cheng-Prusoff; for Ki: read-out: JAK 3 (pKi) (converted)
JAK2 = JAK2 (Homo sapiens (Human), UniProt O60674); test: Biochemical JAK and Tyk2 Kinase Assays (LanthaScreen), JAK2; conditions: 3 μM ATP (Km); pIC50 converted to pKi by Cheng-Prusoff
Procedure: as §1, §2, §3, §4

Aqueous Solubility Assay = conditions: PBS buffer pH 7.4; maximum upper limit 1,000 μM
Procedure: Assay 5: Aqueous Solubility Assay
The purpose of this assay was to quantify the solubility of test compounds in pH 4 and pH 7.4 PBS buffers. The assay required 40 μL of 10 mM DMSO test compound solution per desired buffer in addition to 20 μL required to make a test standard. For example, to test a compound in both buffers, 100 μL (2*40 μL+20 μL) of 10 mM DMSO compound stock solution was required.
The standard was created by diluting 20 μL of 10 mM DMSO compound stock solution into 180 μL of methanol and was shaken for five minutes to ensure solution uniformity. […] This 1,000 μM solution was run on an Agilent 1260 LC-MS system by injecting 2 μL in order to obtain the peak area. For the test solutions, 40 μL of 10 mM DMSO compound stock solution, per PBS buffer condition, were dried down into a powder overnight. Once in powder form, 400 μL of the desired PBS buffer was added to the powder and allowed to shake vigorously for four hours. The maximum theoretical concentration for this sample solution was 1,000 μM. After four hours of shaking, the samples were centrifuged for 10 minutes at 3,000 RPM before injecting 2 μL on the same Agilent 1260 LC-MS system to obtain the peak area.
In Table 6 below, A represents a value above 500, B represents a value between 250 and 500, C represents a value between 50 and 250, D represents a value between 10 and 50, and E represents a value below 10.

[2] = Solubility Assay in Organic Excipients; conditions: maximum upper limit 20,000 μM
[3] = oil or lipid, Solubility in MCT (mg/mL)
[4] = organic solvent or mixture, Solubility in Diisopropyl adipate (mg/mL)
[5] = organic solvent or mixture, Solubility in PEG400 (mg/mL)
[6] = organic solvent or mixture, Solubility in Propylene glycol (mg/mL)

JAK2, sequence (O60674 whole entry): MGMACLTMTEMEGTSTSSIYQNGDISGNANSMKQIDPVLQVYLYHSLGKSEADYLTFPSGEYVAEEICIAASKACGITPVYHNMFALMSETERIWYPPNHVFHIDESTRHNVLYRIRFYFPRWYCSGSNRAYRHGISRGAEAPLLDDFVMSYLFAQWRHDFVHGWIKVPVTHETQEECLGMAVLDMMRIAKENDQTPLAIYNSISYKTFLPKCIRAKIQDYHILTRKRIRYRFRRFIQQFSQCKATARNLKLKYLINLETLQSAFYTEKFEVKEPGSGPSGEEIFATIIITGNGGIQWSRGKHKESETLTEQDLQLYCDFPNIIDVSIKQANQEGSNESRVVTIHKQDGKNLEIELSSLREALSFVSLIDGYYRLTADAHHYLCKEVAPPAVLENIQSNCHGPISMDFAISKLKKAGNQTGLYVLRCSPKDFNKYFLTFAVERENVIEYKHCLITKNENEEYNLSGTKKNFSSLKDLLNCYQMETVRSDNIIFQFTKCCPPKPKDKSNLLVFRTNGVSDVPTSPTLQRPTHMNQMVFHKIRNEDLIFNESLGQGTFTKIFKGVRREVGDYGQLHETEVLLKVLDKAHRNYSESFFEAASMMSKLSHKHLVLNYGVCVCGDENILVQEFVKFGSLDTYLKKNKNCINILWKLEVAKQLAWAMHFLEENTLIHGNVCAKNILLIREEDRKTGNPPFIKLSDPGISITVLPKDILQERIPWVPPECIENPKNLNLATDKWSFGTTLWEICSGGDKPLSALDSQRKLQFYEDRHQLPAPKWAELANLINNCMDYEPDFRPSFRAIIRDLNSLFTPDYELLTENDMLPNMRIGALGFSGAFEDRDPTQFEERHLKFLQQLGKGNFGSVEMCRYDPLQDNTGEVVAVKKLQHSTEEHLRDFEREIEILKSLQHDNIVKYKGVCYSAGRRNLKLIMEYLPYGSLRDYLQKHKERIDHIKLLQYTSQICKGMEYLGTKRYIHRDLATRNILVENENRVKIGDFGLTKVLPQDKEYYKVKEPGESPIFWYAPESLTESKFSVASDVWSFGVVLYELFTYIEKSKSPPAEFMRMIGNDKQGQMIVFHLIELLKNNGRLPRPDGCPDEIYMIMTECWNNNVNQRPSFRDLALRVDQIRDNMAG
JAK3, sequence (P52333 whole entry): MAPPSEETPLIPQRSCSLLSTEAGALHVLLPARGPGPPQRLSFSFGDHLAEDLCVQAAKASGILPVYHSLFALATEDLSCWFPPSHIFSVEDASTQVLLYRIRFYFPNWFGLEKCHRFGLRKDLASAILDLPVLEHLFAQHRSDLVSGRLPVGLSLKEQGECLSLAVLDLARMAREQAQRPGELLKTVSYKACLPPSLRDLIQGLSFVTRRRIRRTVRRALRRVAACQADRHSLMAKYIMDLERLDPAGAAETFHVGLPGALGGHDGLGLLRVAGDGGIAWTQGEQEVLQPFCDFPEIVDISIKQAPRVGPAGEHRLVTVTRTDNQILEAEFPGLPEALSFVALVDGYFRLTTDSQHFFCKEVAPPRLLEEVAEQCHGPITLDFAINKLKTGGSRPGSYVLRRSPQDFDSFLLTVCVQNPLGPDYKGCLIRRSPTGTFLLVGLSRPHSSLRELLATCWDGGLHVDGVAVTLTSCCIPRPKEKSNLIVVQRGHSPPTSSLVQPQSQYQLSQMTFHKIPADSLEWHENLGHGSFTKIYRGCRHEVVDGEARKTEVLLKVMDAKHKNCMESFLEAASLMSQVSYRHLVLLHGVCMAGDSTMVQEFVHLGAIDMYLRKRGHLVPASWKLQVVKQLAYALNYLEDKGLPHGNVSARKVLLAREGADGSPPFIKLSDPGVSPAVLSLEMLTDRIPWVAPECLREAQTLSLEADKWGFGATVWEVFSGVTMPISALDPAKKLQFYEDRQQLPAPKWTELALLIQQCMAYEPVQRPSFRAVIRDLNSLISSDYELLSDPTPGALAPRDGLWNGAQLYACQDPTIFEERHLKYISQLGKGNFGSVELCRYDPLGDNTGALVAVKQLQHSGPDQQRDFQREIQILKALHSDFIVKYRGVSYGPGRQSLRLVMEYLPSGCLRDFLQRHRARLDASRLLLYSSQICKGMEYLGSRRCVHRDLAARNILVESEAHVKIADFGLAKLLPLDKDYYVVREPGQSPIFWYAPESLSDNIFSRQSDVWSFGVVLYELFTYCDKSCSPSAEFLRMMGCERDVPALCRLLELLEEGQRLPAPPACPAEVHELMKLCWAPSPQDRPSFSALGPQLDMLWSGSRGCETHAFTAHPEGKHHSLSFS
Tyk2, sequence (P29597 whole entry): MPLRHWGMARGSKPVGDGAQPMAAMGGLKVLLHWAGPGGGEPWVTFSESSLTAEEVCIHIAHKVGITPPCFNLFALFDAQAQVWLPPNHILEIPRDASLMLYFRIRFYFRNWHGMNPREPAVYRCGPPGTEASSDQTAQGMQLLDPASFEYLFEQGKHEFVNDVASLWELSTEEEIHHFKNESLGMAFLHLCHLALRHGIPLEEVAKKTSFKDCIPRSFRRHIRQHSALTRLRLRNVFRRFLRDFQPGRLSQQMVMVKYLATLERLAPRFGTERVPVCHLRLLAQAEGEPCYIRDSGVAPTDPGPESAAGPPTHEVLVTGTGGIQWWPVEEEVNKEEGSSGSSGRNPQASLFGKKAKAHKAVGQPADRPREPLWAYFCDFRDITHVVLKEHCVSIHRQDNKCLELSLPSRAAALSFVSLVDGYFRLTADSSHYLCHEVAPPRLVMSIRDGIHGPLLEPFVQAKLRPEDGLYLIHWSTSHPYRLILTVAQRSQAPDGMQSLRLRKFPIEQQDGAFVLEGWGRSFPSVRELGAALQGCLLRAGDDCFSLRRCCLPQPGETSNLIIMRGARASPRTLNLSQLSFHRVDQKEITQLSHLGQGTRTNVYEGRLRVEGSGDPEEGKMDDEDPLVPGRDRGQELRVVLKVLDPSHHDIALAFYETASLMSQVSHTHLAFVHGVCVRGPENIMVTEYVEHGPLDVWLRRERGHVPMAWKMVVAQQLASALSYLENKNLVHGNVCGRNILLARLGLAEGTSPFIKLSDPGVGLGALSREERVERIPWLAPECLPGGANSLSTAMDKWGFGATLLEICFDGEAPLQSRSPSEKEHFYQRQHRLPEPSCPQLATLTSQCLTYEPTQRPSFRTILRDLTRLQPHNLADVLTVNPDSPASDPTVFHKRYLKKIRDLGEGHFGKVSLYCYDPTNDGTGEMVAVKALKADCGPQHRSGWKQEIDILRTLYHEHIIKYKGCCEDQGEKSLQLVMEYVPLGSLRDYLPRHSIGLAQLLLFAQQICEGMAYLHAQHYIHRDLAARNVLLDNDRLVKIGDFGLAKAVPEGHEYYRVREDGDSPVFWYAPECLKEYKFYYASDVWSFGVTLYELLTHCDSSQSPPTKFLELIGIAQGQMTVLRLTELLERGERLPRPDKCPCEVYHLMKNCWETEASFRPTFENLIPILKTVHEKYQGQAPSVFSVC
JAK1, sequence (P23458 whole entry): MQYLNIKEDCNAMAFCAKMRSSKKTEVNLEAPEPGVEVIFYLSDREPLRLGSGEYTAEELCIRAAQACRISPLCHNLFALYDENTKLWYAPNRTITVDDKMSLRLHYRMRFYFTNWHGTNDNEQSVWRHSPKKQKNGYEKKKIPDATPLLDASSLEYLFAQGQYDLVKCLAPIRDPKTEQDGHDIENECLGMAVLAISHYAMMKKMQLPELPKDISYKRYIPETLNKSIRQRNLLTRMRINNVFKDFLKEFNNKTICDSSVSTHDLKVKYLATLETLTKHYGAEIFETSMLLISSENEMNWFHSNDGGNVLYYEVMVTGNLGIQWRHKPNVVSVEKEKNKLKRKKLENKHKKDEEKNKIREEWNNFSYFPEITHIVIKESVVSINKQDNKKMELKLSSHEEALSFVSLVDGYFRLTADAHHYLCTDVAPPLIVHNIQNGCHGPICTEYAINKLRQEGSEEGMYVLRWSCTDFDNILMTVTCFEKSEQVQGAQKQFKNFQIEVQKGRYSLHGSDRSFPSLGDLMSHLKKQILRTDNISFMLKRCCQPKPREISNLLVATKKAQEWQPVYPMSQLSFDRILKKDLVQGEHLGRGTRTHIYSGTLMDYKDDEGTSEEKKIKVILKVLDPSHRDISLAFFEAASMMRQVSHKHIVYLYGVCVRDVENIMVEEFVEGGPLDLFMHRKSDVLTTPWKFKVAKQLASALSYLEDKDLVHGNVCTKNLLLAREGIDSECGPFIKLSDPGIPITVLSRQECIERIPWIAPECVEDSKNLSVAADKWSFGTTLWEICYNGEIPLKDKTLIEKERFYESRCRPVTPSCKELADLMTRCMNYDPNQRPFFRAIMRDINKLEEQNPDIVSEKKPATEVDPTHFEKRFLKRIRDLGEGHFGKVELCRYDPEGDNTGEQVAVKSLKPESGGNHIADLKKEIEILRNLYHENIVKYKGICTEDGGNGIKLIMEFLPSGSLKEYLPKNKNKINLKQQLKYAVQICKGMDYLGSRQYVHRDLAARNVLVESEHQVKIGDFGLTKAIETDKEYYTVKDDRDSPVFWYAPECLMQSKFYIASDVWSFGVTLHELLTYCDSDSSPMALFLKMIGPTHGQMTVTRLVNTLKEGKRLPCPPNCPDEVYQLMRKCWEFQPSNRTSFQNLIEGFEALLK

Compound | Ki (Tyk2) [nM] | Ki (JAK1; read-out: JAK 1 (pKi) (converted)) [nM] | Cacoverap Kp 10^−6 cm/sec (Caco-2 cell monolayer) | Caco Kp 10^−6 cm/sec (Caco-2 cell monolayer) | solubility at 4 h (physchem; [3]) [µg/mL] | solubility at 4 h (physchem; [4]) [µg/mL] | solubility at 4 h (physchem; [5]) [µg/mL] | solubility at 4 h (physchem; [6]) [µg/mL] | IC50 [1] [nM] | Ki (JAK3) [nM] | JAK 2 (pKi) (JAK2) | Tyk 2 (pKi) (Tyk2) | Solubility at PH 7.4 (μmol) (Aqueous Solubility Assay) | JAK 1 (pKi) (JAK1) | Solubility in PEG400 (mg/mL) ([2]; PEG400) | Solubility in Diisopropyl adipate (mg/mL) ([2]; diisopropyl adipate) | Solubility in MCT (mg/mL) ([2]; medium chain triglycerides (MCT)) | Solubility in Propylene glycol (mg/mL) ([2]; propylene glycol) | Tall-1 IL2 pSTAT5 (pIC50) [1] | JAK 3 (pKi) (JAK3)
Cc1cc(Nc2cc(O[C@H]3CCOC3)nc(N(C)[C@@H]3C[C@H]4CCC[C@@H](C3)N4CC(=O)N3CCCC3)n2)n[nH]1 [Compound 31] | 0.1 to 1 | 0.1 to 1 | C (C represents a value between 12×10^−6 and 20×10^−6 cm/sec) | C (C represents a value below 15×10^−6 cm/sec) | < 5000 | < 5000 | < 5000 | < 5000 | ≤ 10 | 0.1 to 1 | A (A represents a pKi value ≥10 (Ki≤0.1 nM)) | – | – | – | – | – | – | – | – | –
COCCOC(=O)N1[C@@H]2CCC[C@H]1C[C@H](N(C)c1nc(Nc3cc(C)[nH]n3)cc(C3CCCO3)n1)C2 (stereo partly drawn) [Compound 13, 2-methoxyethyl (1R,3s,5S)-3-(methyl(4-((5-methyl-1H-pyrazol-3-yl)amino)-6-(tetrahydrofuran-2-yl)pyrimidin-2-yl)amino)-9-azabicyclo[3.3.1]nonane-9-carboxylate] | – | – | – | – | – | – | – | – | – | – | A (A represents a pKi value ≥10 (Ki≤0.1 nM)) | B (B represents a pKi value between 9 and 10 (Ki between 1 nM and 0.1 nM)) | C (C represents a value between 50 and 250) | A (A represents a pKi value ≥10 (Ki≤0.1 nM)) | A (A represents a value above 10) | A (A represents a value above 10) | B (B represents a value between 5 and 10) | A (A represents a value above 10) | B (B represents a pIC50 value between 7.5 (included) and 8.0) | C (C represents a pKi value between 8 and 9 (Ki between 10 nM and 1 nM))
COCCOC(=O)N1[C@@H]2CCC[C@H]1C[C@H](N(C)c1nc(Nc3cc(C)[nH]n3)cc(O[C@@H]3CCOC3)n1)C2 [Compound 22] | 0.1 to 1 | – | B (B represents a value between 20×10^−6 and 35×10^−6 cm/sec) | B (B represents a value between 15×10^−6 and 30×10^−6 cm/sec) | < 5000 | > 10000 | > 10000 | > 10000 | 10 to 31.6 | 0.1 to 1 | A (A represents a pKi value ≥10 (Ki≤0.1 nM)) | – | – | A (A represents a pKi value ≥10 (Ki≤0.1 nM)) | – | – | – | – | – | –
Cc1cc(Nc2cc(O[C@@H]3CCOC3)nc(N(C)[C@@H]3C[C@H]4CCC[C@@H](C3)N4C(=O)OC3CCOCC3)n2)n[nH]1 [Compound 21] | 0.1 to 1 | – | B (B represents a value between 20×10^−6 and 35×10^−6 cm/sec) | B (B represents a value between 15×10^−6 and 30×10^−6 cm/sec) | 5000 to 10000 (≈ 9.23 to 18.5 mM) | > 10000 | > 10000 | > 10000 | 10 to 31.6 | 0.1 to 1 | A (A represents a pKi value ≥10 (Ki≤0.1 nM)) | – | – | A (A represents a pKi value ≥10 (Ki≤0.1 nM)) | – | – | – | – | – | –
